From patent publication US8492346B2, “Methods of use of epsilon inhibitor compounds for the attenuation of pain” (KAI Pharmaceuticals, Inc., priority 2007, dated 2013)
Where two headings read alike, the source gives them in different places.

Experiment: Rat pharmacokinetics, plasma levels by sandwich-based ELISA
Assay type: in vivo
Description: To initially characterize the pharmacokinetics of KAI-1678 in rats, male rats were administered KAI-1678 at doses of 100 and 1,000 mcg/rat (˜300 and ˜3,000 mcg/kg) as an IV bolus injection via the tail vein. Blood samples were withdrawn periodically for up to two hours following the injection for plasma analysis of KAI-1678 levels. There were three and two animals in the 100 and 1,000 mcg dose groups, respectively, and there was consistency in KAI-1678 plasma concentrations between animals in each dose group.
In the experiment shown in FIG. 29, male rats were administered KAI-1678 as a subcutaneous bolus injection (200 microL into the left hindleg) at doses of 25 or 250 mcg/animal (approximately 80 and 800 mcg/kg, respectively). Blood samples were taken at various time points over two hours after administration of the compound to determine plasma concentrations of KAI-1678. There were three and four animals in the 25 and 250 mcg/animal dose groups, respectively, and the KAI-1678 plasma concentration measurements were consistent between animals in each dose group. Cmax occurred within 10 minutes after injection and increased in a dose-proportional manner over the two doses tested.
In the experiment shown in FIG. 30, male rats were administered KAI-1678 as a continuous subcutaneous infusion for 2 hours at doses of 19 and 190 mcg/kg/hr. Blood samples were taken at various time points throughout the infusion and for 1 hour after the end of infusion to determine plasma concentrations of KAI-1678. There were two animals per dose group and the plasma KAI-1678 concentration measurements were consistent between animals in each dose group. At the lower dose rate (19 mcg/kg/hr), plasma concentrations reached steady state (˜3 ng/mL) by 60 minutes and remained relatively constant throughout the rest of the infusion. […] At both dose rates, plasma concentrations of KAI-1678 dropped quickly after the end of infusion although compound was still detectable at both dose levels one hour after the end of infusion.

## Ac-EAVSLKPTGGYGRKKRRQRRR-NH2 [KAI-1678]
Intravenous bolus
  Clearance from systemic circulation: rapidly cleared from systemic circulation
male, rat, plasma, sc, 19 ug/kg/hr, subcutaneous infusion 19 mcg/kg/hr, by 60 minutes, read-out: Steady state plasma concentration
  level at 1 h: ~3 ng/mL
male, rat, plasma, sc, subcutaneous bolus, read-out: Time of maximum plasma concentration (converted)
  Tmax: ~10 min
rat, in vivo, iv, 300 ug/kg, IV bolus ~300 mcg/kg, preliminary, read-out: Terminal half-life
  half-life: ~38 min
rat, in vivo, iv, IV bolus ~300 mcg/kg, preliminary, read-out: Terminal half-life
  half-life: ~38 min
rat, in vivo, iv, IV bolus ~3,000 mcg/kg, preliminary, read-out: Terminal half-life
  half-life: ~66 min
rat, in vivo, iv, intravenous bolus, read-out: Terminal half-life
  half-life: ~50 min
rat, in vivo, sc, 800 ug/kg, subcutaneous bolus approximately 80 and 800 mcg/kg, read-out: Terminal half-life
  half-life: ~35 min
rat, in vivo, sc, subcutaneous infusion, read-out: Half-life after end of infusion
  half-life: ~30 min
rat, in vivo, sc, subcutaneous infusion 190 mcg/kg/hr for 2 hours
  Cmax: ~60 ng/mL
rat, in vivo, sc, subcutaneous route vs intravenous bolus
  bioavailability: ~10%
Subcutaneous bolus (80, 800 mcg/kg) or infusion (19, 190 mcg/kg/hr)
  Dose proportionality of exposure: dose-proportional increases in exposures
Subcutaneous infusion
  Half-life after end of infusion: ~45 min
  Time of maximum plasma concentration: ~1 h
